# Results from patent US20220081470A1, “THIAZOLYL PEPTIDES FOR THE TREATMENT NONTUBERCULOUS MYCOBACTERIAL INFECTIONS” (priority 2019, published 2022).
# Like-named read-outs stand apart in the source and are kept apart here.
# Columns and labels:
# [1] = system: Mycobacterium nonchromogenicum; assay: MIC by broth dilution (CLSI M24), resazurin readout; format: cell-based; conditions: Mycolicibacter nonchromogenicus
# Mycobacterium abscessus [2] = assay: as above; format: cell-based; conditions: Mycobacteroides abscessus; M.abscessess
# [3] = system: Mycobacterium nonchromogenicum; assay: Minimum Bactericidal Concentration (MBC); format: cell-based; conditions: Mycolicibacter nonchromogenicus
# Mycobacterium gordonae [4] = assay: MIC by broth dilution (CLSI M24), resazurin readout; format: cell-based; conditions: M.gordonae
# M. avium = assay: In vitro drug combination study, checkerboard method; format: cell-based, Mycobacterium avium; conditions: for MIC: Mycobacterium avium, 144 h, drug alone, checkerboard, read-out: Individual MIC; for FIC index / Outcome: in combination with PM181108A
# Mycobacterium kansasii [5] = assay: Minimum Bactericidal Concentration (MBC); format: cell-based; conditions: M.kansasii
# [6] = system: Mycobacterium intracellulare; assay: MIC by broth dilution (CLSI M24), resazurin readout; format: cell-based; conditions: M.intracellulare
# Mycobacterium avium [7] = assay: as above; format: cell-based; conditions: M.avium
# Mycobacterium abscessus [8] = assay: Minimum Bactericidal Concentration (MBC); format: cell-based; conditions: Mycobacteroides abscessus; M.abscessess
# [9] = system: Mycobacterium intracellulare; assay: Minimum Bactericidal Concentration (MBC); format: cell-based; conditions: M.intracellulare
# Mycobacterium avium [10] = assay: Minimum Bactericidal Concentration (MBC); format: cell-based; conditions: M.avium
# Mycobacterium kansasii [11] = assay: MIC by broth dilution (CLSI M24), resazurin readout; format: cell-based; conditions: M.kansasii
# M. gordonae = assay: In vitro drug combination study, checkerboard method; format: cell-based, Mycobacterium gordonae; conditions: for MIC: Mycobacterium gordonae, 144 h, drug alone, checkerboard, read-out: Individual MIC; for FIC index / Outcome: in combination with PM181108A
# Mycobacterium fortuitum [12] = assay: Minimum Bactericidal Concentration (MBC); format: cell-based; conditions: Mycolicibacterium fortuitum; M.fortuitum
# Mycobacterium fortuitum [13] = assay: MIC by broth dilution (CLSI M24), resazurin readout; format: cell-based; conditions: Mycolicibacterium fortuitum; M.fortuitum
# Mycobacterium gordonae [14] = assay: Minimum Bactericidal Concentration (MBC); format: cell-based; conditions: M.gordonae
# [15] = system: M. abscessus in THP-1 macrophages; assay: Intracellular efficacy in THP-1 macrophages; format: cell-based, Mycobacterium abscessus; conditions: M.abscessess in THP-1 macrophages
# Description: (§1) To test drug efficacy against slow or non-replicating bacilli in the intracellular compartment, THP-1 cells were grown in RPMI medium supplemented with […] sodium pyruvate, 200 mM L-glutamine, 3.7 g of sodium bicarbonate (Sigma) per litre, and 10% foetal calf serum (Gibco-BRL Life Technologies) without any antibiotics. The macrophages were seeded in 96-well plates at a density of approximately 5×10^5 cells/flask, incubated overnight, and were induced by 50 nM phorbol 12-myristate 13-acetate (PMA) to achieve macrophage differentiated phenotypesat 37° C./48-72 hr/5% CO2 atmosphere. After 48 hr of activation, the THP-1 macrophages were infected with respective NTM strains at a multiplicity of infection (MOI) of 1:10/2 h at 37° C. with 5% CO2. The macrophage monolayers were washed twice with […] of phosphate-buffered saline (+Ca^2++Mg^2+) to remove the free bacteria. Sets of triplicate wells were lysed (0.05% SDS) at specific timepoints, and enumerated to estimate the numbers of intracellular NTM 2 h post-infection.
# (§2) The residual intracellular viable mycobacteria were enumerated at 0, 3, 5, and 7 day on Middlebrook 7H11 agar plates. […] Inhibitory sigmoidal curves were generated by plotting the log10 cfu/ml against the Cbroth/MIC ratio and the AUC/MIC ratio.
# [16] = system: M. avium in THP-1 macrophages; assay: Intracellular efficacy in THP-1 macrophages; format: cell-based, Mycobacterium avium
# Description: as §1, §2
# [17] = system: M. nonchromogenicum in THP-1 macrophages; assay: Intracellular efficacy in THP-1 macrophages; format: cell-based, Mycobacterium nonchromogenicum
# Description: as §1, §2
# [18] = system: M. intracellulare in THP-1 macrophages; assay: Intracellular efficacy in THP-1 macrophages; format: cell-based, Mycobacterium intracellulare
# Description: as §1, §2
# [19] = system: M. kansasii in THP-1 macrophages; assay: Intracellular efficacy in THP-1 macrophages; format: cell-based, Mycobacterium kansasii
# Description: as §1, §2
# [20] = system: M. gordonae in THP-1 macrophages; assay: Intracellular efficacy in THP-1 macrophages; format: cell-based, Mycobacterium gordonae
# Description: as §1, §2
# [21] = system: M. fortuitum in THP-1 macrophages; assay: Intracellular efficacy in THP-1 macrophages; format: cell-based, Mycobacterium fortuitum
# Description: as §1, §2
# [22] = M.nonchromogenicum, read-out: MIC
# [23] = M.nonchromogenicum, read-out: MBC
SMILES,MIC [1] [µg/mL],MIC (Mycobacterium abscessus [2]) [µg/mL],MBC [3] [µg/mL],MIC (Mycobacterium gordonae [4]) [µg/mL],MBC (Mycobacterium kansasii [5]) [µg/mL],MIC [6] [µg/mL],MIC (Mycobacterium avium [7]) [µg/mL],MBC (Mycobacterium abscessus [8]) [µg/mL],MBC [9] [µg/mL],MBC (Mycobacterium avium [10]) [µg/mL],MIC (Mycobacterium kansasii [11]) [µg/mL],MBC (Mycobacterium fortuitum [12]) [µg/mL],MIC (Mycobacterium fortuitum [13]) [µg/mL],MBC (Mycobacterium gordonae [14]) [µg/mL],IC Emax (intracellular efficacy) [15] [log10 cfu/ml],IC Emax (intracellular efficacy) [16] [log10 cfu/ml],IC Emax (intracellular efficacy) [17] [log10 cfu/ml],IC Emax (intracellular efficacy) [18] [log10 cfu/ml],IC Emax (intracellular efficacy) [20] [log10 cfu/ml],IC Emax (intracellular efficacy) [21] [log10 cfu/ml],other results
NCC[C@H](O)C(=O)N[C@@H]1C[C@H](N)[C@@H](O[C@H]2O[C@H](CN)[C@@H](O)[C@H](O)[C@H]2O)[C@H](O)[C@H]1O[C@H]1O[C@H](CO)[C@@H](O)[C@H](N)[C@H]1O [Amikacin],2,4,8,2,16,1,2,16,2,8,4,2,2,8,,,,,,,"MIC (M. avium): 4 µg/mL; FIC index (M. avium): 0.80; Outcome (M. avium): Additive (>0.5-4.0, addition or indifference); MIC (M. gordonae): 4 µg/mL; FIC index (M. gordonae): 0.90; Outcome (M. gordonae): Additive (>0.5-4.0, addition or indifference)"
CC[C@H]1OC(=O)[C@H](C)[C@@H](O[C@H]2C[C@@](C)(OC)[C@@H](O)[C@H](C)O2)[C@H](C)[C@@H](O[C@@H]2O[C@H](C)C[C@H](N(C)C)[C@H]2O)[C@](C)(OC)C[C@@H](C)C(=O)[C@H](C)[C@@H](O)[C@]1(C)O [Clarithromycin],0.25,2,4,0.5,2,0.13,0.5,32,0.5,2,0.5,> 32,32,1,0.70,1.00,0.82,1.78,1.26,0.35,"MIC (M. avium): 1 µg/mL; FIC index (M. avium): 0.46; Outcome (M. avium): Synergy (≤0.5, synergism); MIC (M. gordonae): 1 µg/mL; FIC index (M. gordonae): 0.46; Outcome (M. gordonae): Synergy (≤0.5, synergism); IC Emax (intracellular efficacy) [19]: 0.91 log10 cfu/ml"
CO[C@H]1/C=C/O[C@@]2(C)Oc3c(C)c(O)c4c(O)c(c(/C=N/N5CCN(C)CC5)c(O)c4c3C2=O)NC(=O)/C(C)=C\C=C\[C@H](C)[C@H](O)[C@@H](C)[C@@H](O)[C@@H](C)[C@H](OC(C)=O)[C@@H]1C [Rifampicin],,16,,0.25,16,0.06,0.25,32,0.25,1,0.13,> 32,4,8,0.00,1.04,0.82,0.44,1.36,0.00,"MIC [1, 22]: 0.13 µg/mL; MBC [3, 23]: 32 µg/mL; MIC (M. avium): 0.5 µg/mL; Outcome (M. avium): Additive (>0.5-4.0, addition or indifference); MIC (M. gordonae): 0.5 µg/mL; Outcome (M. gordonae): Synergy (≤0.5, synergism)"
C=C(NC(=O)C(=C)NC(=O)c1csc(C2=N[C@@H]3c4csc(n4)[C@H]4NC(=O)c5csc(n5)[C@H]([C@](C)(O)[C@@H](C)O)NC(=O)[C@H]5CSC(=N5)/C(=C/C)NC(=O)[C@H]([C@@H](C)O)NC(=O)c5csc(n5)[C@]3(CC2)NC(=O)[C@H](C)NC(=O)C(=C)NC(=O)[C@H](C)NC(=O)[C@H]([C@@H](C)CC)N[C@@H]2C=Cc3c([C@H](C)O)cc(nc3[C@H]2O)C(=O)O[C@@H]4C)n1)C(N)=O [Thiostrepton],,0.5,,0.5,16,0.13,1,32,1,2,1,> 32,2,2,0.00,1.19,0.49,0.67,0.72,0.00,"MIC [1, 22]: 0.5 µg/mL; MBC [3, 23]: 16 µg/mL; IC Emax (intracellular efficacy) [19]: 1.56 log10 cfu/ml"
COc1c(N2C[C@@H]3CCCN[C@@H]3C2)c(F)cc2c(=O)c(C(=O)O)cn(C3CC3)c12 [Moxifloxacin],2,2,16,2,8,0.5,4,4,1,8,2,0.25,< 0.06,4,1.00,1.00,0.34,1.46,1.23,1.60,IC Emax (intracellular efficacy) [19]: 1.93 log10 cfu/ml
